Assay results published in US20200407712A1, “ARRAY-BASED CYCLIC PEPTIDE LIBRARIES” (HealthTell Inc., priority 2018, published 2020).

Tests used:
[1] = intramolecular disulfide formation by ambient air oxidation of bis-Cys peptides on SiO2 array surface after side-chain deprotection (TFA/TMS-OTf) and NH3-gas DKP detachment; fraction oxidized from MALDI relative peak intensities; details: the molecule shown is the open-chain precursor, none (dry film on SiO2, ambient air), other, 18.0 h, scale: fraction oxidized
[2] = molecular target: T1, human diaphorase (NQO1) (Homo sapiens, UniProt P15559); experiment: Alexa Fluor 555-diaphorase binding to linear and lactam constrained peptide microarrays; details: 10.0 nM protein applied to the array; for Diaphorase Lactam, log 10 transformed median intensity: lactam constrained library peptide; for Diaphorase Linear, log 10 transformed median intensity: linear library peptide
T1 construct: purchased SigmaAldrich
Description: (§1) Diaphorase is NAD(P)H dehydrogenase (UniProtKB: P15559) encoded by the NQO1 gene. Diaphorase has utility as a model enzyme; for which peptide based synthetic affinity agents to diaphorase are required. A 3.3 million feature peptide array was used to identify potential binding partner peptides for diaphorase. Ferredoxin NADP+ Reductase (FNR) and Ferredoxin are included as counter screens for a specific application, while immunoglobulin depleted human serum (Non-Immunoglobulin Serum Components or NISC) was used as a complex mixture to control for generally sticky peptides.
Two wafers from the same synthesis batch were obtained where one wafer was prepared with the lactam chemistry and constrained into a cyclized form. The degree of cyclization was confirmed using the biotinylation assay described in Examples 9, 17, and 19.
(§2) Peptide arrays were prepared for protein binding by pretreating the arrays in PBST for 30 min at […]. Direct labeled diaphorase (Alexa Fluor™ 555), direct labeled FNR (Alexa Fluor™ 555) and biotinylated ferredoxin were applied to the arrays at 1.0 and 10.0 nM along with direct labeled NISC at 0.001 mg/mL for 1 hr at 37° C. Arrays were washed 3× with PBST and Streptavidin-Alexa Fluor™ 555 was applied to the biotinylated ferredoxin and streptavidin alone arrays. All other arrays received PBST and were incubated for 1 hr at 37° C. Arrays were washed with PBST and p53Ab1-Alexa Fluor™ 647 applied to all arrays to illuminate the edge fiducials for 10 min at 37° C. Following the final incubation arrays were washed in PBST and water, dried and imaged on the ImageXpress ([…]). Triplicate arrays were used for the subsequent analysis except for when rejection of an array was necessary due to the presence of artifacts. Data were analyzed using a custom R script.
Intensities plotted are the log 10 transformed median intensity from replicate arrays. Coloring of the points represents the density of features at that intensity using a gray-scale map. Light grey represents areas of low peptide numbers while black represents the intensity having the highest number of peptides. The diagonal line is equivalence line. […] CLUSTAL sequence alignment (FIG. 27B) of the sequences indicated similarities in amino acid composition. Highlighted amino acids are conserved in over 60% of the peptides for that position or are a chemically similar amino acid (ie: F and Y).
The sequences contain similar amino acid usage. Four peptides having the highest degree of cyclization in the quality control assay were identified and binding intensities compared to other library peptides having one or two amino acid substitutions as shown in FIG. 28. Substitutional analysis provides confidence in the array data by indicating which residues are important for binding. Dark grey boxes highlight indicate a residue conserved in more than 60% of the peptides. Light grey boxes highlight indicate chemically similar amino acids to the conserved residue. RFI is the intensity is the median replicate log 10 intensity for the 10.0 nM Diaphorase.

[3] = test system: Ferredoxin NADP+ Reductase (FNR); experiment: FNR counter screen on linear and lactam constrained peptide microarrays; type: binding; details: 10.0 nM protein applied to the array; for FNR Lactam, log 10 transformed median intensity: lactam constrained library peptide; for FNR Linear, log 10 transformed median intensity: linear library peptide
Description: as §1, §2

[4] = test system: Non-Immunoglobulin Serum Components (NISC); experiment: NISC counter screen on linear and lactam constrained peptide microarrays; type: binding, human; details: 0.001 mg/mL NISC applied to the array; for NISC Lactam, log 10 transformed median intensity: lactam constrained library peptide; for NISC Linear, log 10 transformed median intensity: linear library peptide
Description: as §1, §2
Peptides were also selected based on the difference in log 10 transformed intensities between diaphorase and NISC as the counter screen agent (LFGdiaphorase minus LFGNISC). Intensities for 10.0 nM diaphorase and 0.001 mg/mL NISC are shown in FIG. 29A where intensities plotted are the log 10 transformed median intensity from replicate arrays. Coloring of the points represents the density of features at that intensity using a grey colorscale. Light grey represents areas of low peptide numbers while black represents the intensity having the highest number of peptides. The diagonal line is equivalence line. Selectivity vs NISC was not dependent on cyclization as diaphorase also bound the linear forms for some peptides (Table 4). Three peptides having the highest degree of cyclization in the quality control assay were identified and binding intensities compared to other library peptides having one or two amino acid substitutions (FIG. 30) Each CLUSTAL alignment contains the library peptides having a maximum of two substitutions to the parent peptide. Dark grey highlights indicate a residue conserved in more than 60% of the peptides. Light grey highlights indicate chemically similar amino acids to the conserved residue. The amino acid usage is indicated in the sequence logo above the alignment. Substitutional analysis provides confidence in the array data by indicating which residues are important for binding.

[5] = test system: Ferredoxin; experiment: Biotinylated ferredoxin counter screen on linear and lactam constrained peptide microarrays; type: binding; details: 10.0 nM biotinylated protein, detected with Streptavidin-Alexa Fluor 555; for Ferredoxin Lactam, log 10 transformed median intensity: lactam constrained library peptide; for Ferredoxin Linear, log 10 transformed median intensity: linear library peptide
Description: as §1, §2

[6] = molecular target: Streptavidin (Streptomyces avidinii, UniProt P22629); experiment: Streptavidin-Alexa Fluor 555 alone on linear and lactam constrained peptide microarrays; type: binding; details: for Streptavidin Lactam, log 10 transformed median intensity: lactam constrained library peptide; for Streptavidin Linear, log 10 transformed median intensity: linear library peptide
Method: as §2

Sequence of Streptavidin (P22629 25-183, species assumed): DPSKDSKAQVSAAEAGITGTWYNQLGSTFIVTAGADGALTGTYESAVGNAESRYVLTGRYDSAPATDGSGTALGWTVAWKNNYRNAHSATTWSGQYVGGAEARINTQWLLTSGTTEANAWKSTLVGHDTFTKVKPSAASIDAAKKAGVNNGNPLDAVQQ
T1 sequence (P15559 whole entry): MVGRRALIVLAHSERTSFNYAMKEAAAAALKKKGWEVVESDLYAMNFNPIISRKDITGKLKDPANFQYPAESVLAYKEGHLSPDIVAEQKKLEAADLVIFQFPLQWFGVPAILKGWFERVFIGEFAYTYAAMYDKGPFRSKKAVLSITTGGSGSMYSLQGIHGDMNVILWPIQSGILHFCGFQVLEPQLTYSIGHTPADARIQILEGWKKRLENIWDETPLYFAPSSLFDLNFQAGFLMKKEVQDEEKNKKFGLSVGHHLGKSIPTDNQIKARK

Compound	ring closure, fraction oxidized by MALDI ([1]; 14-membered ring)	ring closure, fraction oxidized by MALDI ([1]; 8-membered ring)	ring closure, fraction oxidized by MALDI ([1]; 20-membered ring)	Diaphorase Lactam, log 10 transformed median intensity [2]	Diaphorase Linear, log 10 transformed median intensity [2]	FNR Lactam, log 10 transformed median intensity [3]	FNR Linear, log 10 transformed median intensity [3]	NISC Lactam, log 10 transformed median intensity [4]	NISC Linear, log 10 transformed median intensity [4]	Ferredoxin Lactam, log 10 transformed median intensity [5]	Ferredoxin Linear, log 10 transformed median intensity [5]	Streptavidin Lactam, log 10 transformed median intensity [6]	Streptavidin Linear, log 10 transformed median intensity [6]
COc1cc(OC)c([P+](CC(=O)N[C@@H](CCCCN)C(=O)N[C@@H](CS)C(=O)N2CCC[C@H]2C(=O)NCC(=O)N[C@@H](CS)C(=O)N[C@@H](CC(C)C)C(=O)NCCCC[C@@H]2NC(=O)[C@@H]3CCCN3C2=O)(c2c(OC)cc(OC)cc2OC)c2c(OC)cc(OC)cc2OC)c(OC)c1	0.73	–	–	–	–	–	–	–	–	–	–	–	–
COc1cc(OC)c([P+](CC(=O)N[C@@H](CCCCN)C(=O)N[C@@H](CS)C(=O)N[C@@H](CS)C(=O)N[C@@H](CC(C)C)C(=O)NCCCC[C@@H]2NC(=O)[C@@H]3CCCN3C2=O)(c2c(OC)cc(OC)cc2OC)c2c(OC)cc(OC)cc2OC)c(OC)c1	–	0.78	–	–	–	–	–	–	–	–	–	–	–
COc1cc(OC)c([P+](CC(=O)N[C@@H](CS)C(=O)N2CCC[C@H]2C(=O)NCC(=O)N[C@@H](CS)C(=O)NCCCC[C@@H]2NC(=O)[C@@H]3CCCN3C2=O)(c2c(OC)cc(OC)cc2OC)c2c(OC)cc(OC)cc2OC)c(OC)c1	0.77	–	–	–	–	–	–	–	–	–	–	–	–
COc1cc(OC)c([P+](CC(=O)N[C@@H](CS)C(=O)N[C@@H](CCC(N)=O)C(=O)N2CCC[C@H]2C(=O)NCC(=O)N[C@@H](Cc2ccc(O)cc2)C(=O)N[C@@H](CS)C(=O)NCCCC[C@@H]2NC(=O)[C@@H]3CCCN3C2=O)(c2c(OC)cc(OC)cc2OC)c2c(OC)cc(OC)cc2OC)c(OC)c1	–	–	0.75	–	–	–	–	–	–	–	–	–	–
COc1cc(OC)c([P+](CC(=O)N[C@@H](CS)C(=O)N[C@@H](CCC(N)=O)C(=O)N[C@@H](Cc2ccc(O)cc2)C(=O)N[C@@H](CS)C(=O)NCCCC[C@@H]2NC(=O)[C@@H]3CCCN3C2=O)(c2c(OC)cc(OC)cc2OC)c2c(OC)cc(OC)cc2OC)c(OC)c1	0.72	–	–	–	–	–	–	–	–	–	–	–	–
COc1cc(OC)c([P+](CC(=O)N[C@@H](CS)C(=O)N[C@H](C(=O)N[C@@H](Cc2c[nH]cn2)C(=O)N[C@@H](CS)C(=O)NCCCC[C@@H]2NC(=O)[C@@H]3CCCN3C2=O)[C@@H](C)O)(c2c(OC)cc(OC)cc2OC)c2c(OC)cc(OC)cc2OC)c(OC)c1	0.78	–	–	–	–	–	–	–	–	–	–	–	–
COc1cc(OC)c([P+](CC(=O)N[C@@H](Cc2ccc(O)cc2)C(=O)N[C@@H](CS)C(=O)N2CCC[C@H]2C(=O)NCC(=O)N[C@@H](CS)C(=O)N[C@@H](CO)C(=O)NCCCC[C@@H]2NC(=O)[C@@H]3CCCN3C2=O)(c2c(OC)cc(OC)cc2OC)c2c(OC)cc(OC)cc2OC)c(OC)c1	0.76	–	–	–	–	–	–	–	–	–	–	–	–
COc1cc(OC)c([P+](CC(=O)N[C@@H](Cc2ccc(O)cc2)C(=O)N[C@@H](CS)C(=O)N[C@@H](CS)C(=O)N[C@@H](CO)C(=O)NCCCC[C@@H]2NC(=O)[C@@H]3CCCN3C2=O)(c2c(OC)cc(OC)cc2OC)c2c(OC)cc(OC)cc2OC)c(OC)c1	–	0.7	–	–	–	–	–	–	–	–	–	–	–
TSFFPGYN [library array peptide, tested lactam constrained and linear]	–	–	–	4.51	2.86	2.62	2.54	3.47	2.60	2.71	2.54	2.52	2.53
TTFFQPSY [library array peptide, tested lactam constrained and linear]	–	–	–	4.46	2.77	2.55	2.54	3.35	2.59	2.78	2.54	2.52	2.54
TTFSFSTP [library array peptide, tested lactam constrained and linear]	–	–	–	4.47	2.78	2.62	2.57	3.33	2.62	2.69	2.58	2.55	2.54
TTLFQTPY [library array peptide, tested lactam constrained and linear]	–	–	–	4.45	2.80	2.63	2.54	3.28	2.69	2.66	2.54	2.53	2.52
TYPGVYPS [library array peptide, tested lactam constrained and linear]	–	–	–	4.40	2.75	2.59	2.54	3.16	2.58	2.69	2.54	2.53	2.51
TYPIYGPA [library array peptide, tested lactam constrained and linear]	–	–	–	4.46	2.77	2.59	2.53	3.43	2.59	2.80	2.55	2.54	2.52
VPSSYNLN [library array peptide, tested lactam constrained and linear]	–	–	–	4.38	3.82	2.58	2.57	2.68	2.65	2.6	2.58	2.57	2.57
